# Measured values from patent publication US6121252A, “Phosphinic acid derivatives” (priority 1998, dated 2000).
# Peptide text beside a SMILES is read from it.
# Assays:
# [1] = biological target: T1, NAALADase (Rattus norvegicus, UniProt P70627); assay: In vitro inhibition of NAALADase activity; format: biochemical
# T1 construct: synaptosomal protein; from tissue; host or cells: synaptosomes (brain tissue)
# Source text: "Inhibition", in the context of enzymes, refers to reversible enzyme inhibition such as competitive, uncompetitive and non-competitive inhibition. Competitive, uncompetitive and non-competitive inhibition can be distinguished by the effects of an inhibitor on the reaction kinetics of an enzyme. […] The affinity between the inhibitor and the enzyme may be measured by the inhibitor constant, Ki, which is defined as: [formula] wherein [E] is the concentration of the enzyme, [I] is the concentration of the inhibitor, and [EI] is the concentration of the enzyme-inhibitor complex formed by the reaction of the enzyme with the inhibitor. Unless otherwise specified, Ki as used herein refers to the affinity between the inventive compounds and NAALADase.
# Various compounds of formula I were tested for in vitro inhibition of NAALADase activity.
# Substrate and product were resolved by anion-exchange liquid chromatography. […] Quisqualate (100 μM) was included in parallel assay tubes to confirm the specificity of the measurements.
# [2] = tested on: cortical cell cultures; assay: In vitro ischemia assay (KCN/2-DG) in cortical cell cultures; format: cell-based, rat; conditions: Rattus norvegicus, 1 h, read-out: EC50 (50% reduction in glutamate toxicity following an ischemic insult); KCN/2-DG insult, compound during insult and one hour thereafter
# [3] = tested on: LNCaP tumors; assay: In vivo LNCaP tumor model, subcutaneous Compounds 16, 17, 18; set-up: species or system ncr nude male mice; conditions: for tumor response (in words): 1 and 3 mg/kg s.c.
# Method: Ncr nude male mice, age 5 to 6 weeks, were injected in the right flank with 5×10^6 LNCaP cells in Matrigel™ (0.1 ml total injection volume). Two weeks following cell injection, daily s.c. injections of Compound 16, Compound 17, and Compound 18 were initiated at the following doses: 1 and 3 mg/kg. Controls received 50 mM HEPES s.c. daily. Once tumors were palpable they were measured twice a week.
# Response to treatment was monitored in two ways. First, mean tumor volume for each group was presented as tumor:control ratio (% T/C) and these values were compared at one point in time. Second, tumor volume versus time was monitored.
# [4] = tested on: cortical cell cultures; assay: In vitro toxicity of NAAG in cortical cell cultures; format: cell-based; conditions: Rattus norvegicus, 20 min
# Method: Experiments are performed after 21 days in cultures.
# At the end of exposure, the cells are washed once with HEPES buffered saline solution and then replaced with serum free modified Earle's basal medium. The cultures are then returned to the CO2 incubator for 24 hour recovery.
# This control measurement is subtracted from each experimental point.
# [5] = tested on: dopaminergic neurons; assay: Parkinson's Disease model: MPTP lesioned mice; format: in vivo, CD1 mice
# Method: To examine the effect of NAALADase inhibitors on Parkinson's Disease in vivo, MPTP lesioned mice were treated with 2-(phosphonomethyl)pentanedioicacid or a vehicle.
# MPTP lesioning of dopaminergic neurons in mice was used as an animal model of Parkinson's Disease, as described by Steiner, Proc. Natl. Acad. Sci., Vol. 94, pp. 2019-2024 (March 1997). In brief, four week old male CD1 white mice were dosed IP with 30 mg/kg of MPTP for 5 days. […] At 18 days following MPTP treatment, the mice were sacrificed and their brains were removed and sectioned. Immunostaining was performed on saggital and coronal brain sections using anti-tyrosine hydroxylase (TH) antibodies to quantitate survival and recovery of dopaminergic neurons.
# [6] = tested on: spinal cord organotypic cultures; assay: ALS model: ChAT activity of spinal cord organotypic cultures with THA; format: cell-based, rat; conditions: Rattus norvegicus, THA alone, 100 μM
# Method: Organotypic cultures were prepared from lumbar spinal cord of 8 day old rats, as described by Rothstein et al., J. Neurochem., Vol. 65, No. 2 (1995), and Rothstein et al., Proc. Natl. Acad. Sci. USA, Vol. 90, pp. 6591-6595 (July 1993). In brief, lumbar spinal cords were removed and sliced into […]-thick-dorsal-ventral sections, and five slices were placed on Millipore CM semipermeable 30-mm-diameter membrane inserts. The inserts were placed on 1 ml of culture medium in 35-mm-diameter culture wells. Culture medium consisted of 50% minimal essential medium and phosphate-free HEPES (25 mM), 25% heat-inactivated horse serum, and 25 Hanks' balanced salt solution (GIBCO) supplemented with D-glucose (25.6 mg/ml) and glutamine (2 mM), at a final pH of 7.2. Antibiotic and antifungal agents were not used. Cultures were incubated at 37° C. in 5% CO2 containing humidified environment (Forma Scientific). Culture medium, along with any added pharmacological agents, was changed twice weekly.
# Drugs were incubated for an additional 13 to 20 days with the 100 μM THA. At the end of this period, cultures were collected assayed for ChAT activity as described below.
# To determine choline acetyltransferase (CHAT) activity, the spinal cord tissues in each dish (five slices) were pooled and frozen (-75° C.) until assay. CHAT activity was measured radiometrically by described methods using [^3 H]acetyl-CoA (Amersham; Fonnum, 1975). Protein content of tissue homogenate was determined by a Coomassi Protein Assay kit (Pierce, Rockford, Ill.).
# T1 sequence (P70627 whole entry): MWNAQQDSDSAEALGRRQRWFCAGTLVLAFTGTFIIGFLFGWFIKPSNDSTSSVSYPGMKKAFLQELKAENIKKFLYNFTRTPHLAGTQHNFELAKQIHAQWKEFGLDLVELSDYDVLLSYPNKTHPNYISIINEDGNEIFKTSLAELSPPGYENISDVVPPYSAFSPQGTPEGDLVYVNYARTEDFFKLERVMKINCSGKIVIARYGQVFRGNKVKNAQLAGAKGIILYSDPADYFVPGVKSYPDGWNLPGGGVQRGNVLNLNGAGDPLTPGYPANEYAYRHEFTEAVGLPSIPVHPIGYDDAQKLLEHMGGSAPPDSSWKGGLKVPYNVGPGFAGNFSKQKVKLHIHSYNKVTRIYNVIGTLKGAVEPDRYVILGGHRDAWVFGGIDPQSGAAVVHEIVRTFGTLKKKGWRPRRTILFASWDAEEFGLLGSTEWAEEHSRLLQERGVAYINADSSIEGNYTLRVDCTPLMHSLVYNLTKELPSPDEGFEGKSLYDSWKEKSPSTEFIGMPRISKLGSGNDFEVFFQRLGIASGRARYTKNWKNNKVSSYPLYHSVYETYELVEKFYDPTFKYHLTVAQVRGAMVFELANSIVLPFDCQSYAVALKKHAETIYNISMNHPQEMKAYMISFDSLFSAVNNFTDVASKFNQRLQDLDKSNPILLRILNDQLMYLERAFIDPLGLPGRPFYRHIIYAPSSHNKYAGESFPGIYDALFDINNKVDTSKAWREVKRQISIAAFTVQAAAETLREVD
compound,measurement,setting,value
CC(C)(C)c1ccc(NCP(=O)(O)CC(CCC(=O)O)C(=O)O)cc1 (stereo not shown) [drawing 32],Ki,[1],2 nM
O=C(O)CCC(CP(=O)(O)CNc1ccc(F)cc1)C(=O)O (stereo not shown) [drawing 39],EC50,[2],3.1 nM
2-[[[hydroxy(pyridyl)methyl]hydroxyphosphinyl]methyl]pentanedioic acid [Compound 18],"tumor size, % of control tumors",[3]; 1 mg/kg s.c.,54 % of controls
same,"tumor size, % of control tumors",[3]; 3 mg/kg s.c.,58 % of controls
same,tumor response (in words),[3],responded better
"CC(=O)N[C@@H](CC(=O)O)C(=O)N[C@@H](CCC(=O)O)C(=O)O [NAAG, N-acetyl-aspartyl-glutamate] (Ac-Asp-Glu-OH)",cytotoxicity at 3 µM,[4],3.51%
same,cytotoxicity at 10 µM,[4],4.3 ± 3.12%
same,cytotoxicity at 30 µM,[4],11.4 ± 6.17%
same,cytotoxicity at 100 µM,[4],12.7 ± 5.5%
same,cytotoxicity at 300 µM,[4],13.5 ± 4%
same,cytotoxicity at 1000 µM,[4],21.5 ± 4.2%
same,cytotoxicity at 3000 µM,[4],45.1 ± 4.96%
COc1ccc(NCP(=O)(O)CC(CCC(=O)O)C(=O)O)cc1 (stereo not shown) [drawing 30],Ki,[1],2.5 nM
O=C(O)CCC(CP(=O)(O)CNS(=O)(=O)c1ccccc1)C(=O)O (stereo not shown),Ki,[1],90 nM
"O=C(O)CCC(CP(=O)(O)Cc1c(F)c(F)c(F)c(F)c1F)C(=O)O (stereo not shown) [Compound 16, 2-[[(pentafluorobenzyl)hydroxyphosphinyl]methyl]pentanedioic acid]","tumor size, % of control tumors",[3]; 1 mg/kg s.c.,78 % of controls
same,"tumor size, % of control tumors",[3]; 3 mg/kg s.c.,41.4 % of controls
CC(C)(C)c1ccc(NCP(=O)(O)CC(CCC(=O)O)C(=O)O)cc1 (stereo not shown) [drawing 42],EC50,[2],34.6 nM
Cc1ccc(NCP(=O)(O)CC(CCC(=O)O)C(=O)O)cc1 (stereo not shown) [drawing 31],Ki,[1],5.2 nM
"O=C(O)CCC(CP(=O)(O)Cc1cccc(C(F)(F)F)c1)C(=O)O (stereo not shown) [Compound 17, 2-[[(3-trifluoromethylbenzyl)hydroxyphosphinyl]methyl]pentanedioic acid]","tumor size, % of control tumors",[3]; 1 mg/kg s.c.,74.1 % of controls
same,"tumor size, % of control tumors",[3]; 3 mg/kg s.c.,82 % of controls
same,tumor response (in words),[3],responded minimally
CN1CC=C(c2ccccc2)CC1 [MPTP],loss of functional dopaminergic terminals,[5]; MPTP and vehicle vs non-lesioned mice,approximately 68%
same,Percent Striatal TH Innervation Density,"[5]; MPTP/vehicle, mean ± SEM",7.82 ± 0.68%
O=C(O)CCC(CP(=O)(O)C(NCc1ccccc1)c1ccccc1)C(=O)O (stereo not shown),EC50,[2],1 nM
O=C(O)CCC(CP(=O)(O)CNCc1ccccc1)C(=O)O (stereo not shown),EC50,[2],0.9 nM
"N[C@H](C(=O)O)[C@H](O)C(=O)O (relative stereo) [THA, threohydroxyaspartate]",activity at 100 µM,[6],36 ± 12.1%
O=C(O)CCC(CP(=O)(O)CNc1ccc(F)cc1)C(=O)O (stereo not shown) [drawing 29],Ki,[1],9 nM
O=C(O)CCC(CP(=O)(O)C(NC(=O)O)c1ccccc1)C(=O)O (stereo not shown),Ki,[1],2000 nM
COc1ccc(NCP(=O)(O)CC(CCC(=O)O)C(=O)O)cc1 (stereo not shown) [drawing 40],EC50,[2],9.5 nM
Cc1ccc(NCP(=O)(O)CC(CCC(=O)O)C(=O)O)cc1 (stereo not shown) [drawing 41],EC50,[2],11.4 nM
O=C(O)CCC(CP(=O)(O)CN1C(=O)c2ccccc2C1=O)C(=O)O (stereo not shown),Ki,[1],34.5 nM
